Data taken from patent US10941152B2, “Pyrazole compounds as modulators of FSHR and uses thereof” (TOCOPHERX, INC., priority 2014, dated 2021).
pEC50: −log10 of the molar value.

How the values were obtained:
[1] = biological target: T1, follicle-stimulating hormone (FSH) receptor (Rattus norvegicus, UniProt P20395); experiment: Rat granulosa EC50 FSH (Assay B); type: cell-based
T1 construct: endogenous in cells; host or cells: rat granulosa cells
T1 sequence (P20395 18-692): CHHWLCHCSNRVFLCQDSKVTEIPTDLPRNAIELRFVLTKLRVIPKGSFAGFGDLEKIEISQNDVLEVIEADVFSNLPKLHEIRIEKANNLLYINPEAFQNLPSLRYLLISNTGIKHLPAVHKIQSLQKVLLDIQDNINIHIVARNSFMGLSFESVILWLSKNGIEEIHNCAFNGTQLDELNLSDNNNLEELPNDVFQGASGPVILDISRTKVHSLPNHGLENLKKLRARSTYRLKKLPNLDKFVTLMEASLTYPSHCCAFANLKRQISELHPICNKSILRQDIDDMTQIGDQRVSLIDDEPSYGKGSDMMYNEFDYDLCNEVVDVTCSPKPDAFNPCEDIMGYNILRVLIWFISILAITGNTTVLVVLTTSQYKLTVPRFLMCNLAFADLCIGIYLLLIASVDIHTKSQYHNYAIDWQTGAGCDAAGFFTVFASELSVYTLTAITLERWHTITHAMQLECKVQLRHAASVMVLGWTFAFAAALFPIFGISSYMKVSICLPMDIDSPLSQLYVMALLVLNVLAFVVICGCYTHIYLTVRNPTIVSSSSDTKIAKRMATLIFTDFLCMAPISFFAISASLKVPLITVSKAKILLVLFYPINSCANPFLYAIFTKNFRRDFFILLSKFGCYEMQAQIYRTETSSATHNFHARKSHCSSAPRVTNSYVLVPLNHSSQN
Procedure: Example 25. Rat granulosa EC50 FSH (Assay B)
The assay was performed pursuant to the teaching of Yanofsky et al. (2006) Allosteric activation of the follicle-stimulating hormone (FSH) receptor by selective, nonpeptide agonists (JBC 281(19): 13226-13233, which is incorporated by reference in the disclosure of the invention).

FSHR = biological target: T2, FSHR (Homo sapiens, UniProt P23945); experiment: EC50 of cyclic AMP production in CHO FSHR cells + EC20 FSH (Assay A); type: cell-based; settings: cyclic AMP production in CHO FSHR cells + EC20 FSH (0.265 pM), HTRF
T2 construct: expressed in transfected cells; host or cells: CHO (Cho-FSHR-LUC-1-1-43)
T2 sequence (P23945 18-695): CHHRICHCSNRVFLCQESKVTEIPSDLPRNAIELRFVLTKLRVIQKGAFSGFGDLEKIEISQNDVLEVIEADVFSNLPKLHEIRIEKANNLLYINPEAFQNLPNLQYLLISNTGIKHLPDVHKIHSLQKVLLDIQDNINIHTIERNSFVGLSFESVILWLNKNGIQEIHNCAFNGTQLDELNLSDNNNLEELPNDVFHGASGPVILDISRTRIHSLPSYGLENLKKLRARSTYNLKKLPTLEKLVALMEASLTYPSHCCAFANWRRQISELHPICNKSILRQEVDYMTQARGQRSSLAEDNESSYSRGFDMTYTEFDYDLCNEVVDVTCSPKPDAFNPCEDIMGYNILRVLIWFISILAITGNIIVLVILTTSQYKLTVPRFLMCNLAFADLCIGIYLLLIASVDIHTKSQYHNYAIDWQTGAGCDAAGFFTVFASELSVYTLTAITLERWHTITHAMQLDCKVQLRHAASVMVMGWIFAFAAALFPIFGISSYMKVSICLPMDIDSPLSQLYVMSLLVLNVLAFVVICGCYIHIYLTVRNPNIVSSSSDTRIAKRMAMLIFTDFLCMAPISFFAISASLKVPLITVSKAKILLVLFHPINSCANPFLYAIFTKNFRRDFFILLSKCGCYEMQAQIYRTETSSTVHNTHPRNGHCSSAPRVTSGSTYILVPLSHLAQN
Procedure: Example 24. EC50 of cyclic AMP production in CHO FSHR cells+EC20 FSH (Assay A)
2500 Cho-FSHR-LUC-1-1-43 cells were plated per well in 5 al of phenol red free DMEM/F12+1% FBS. Cells were plated in 384 well, solid white low volume plates (Greiner 784075) by Multidrop. Cells were assayed by adding 100 al of 2×EC20 FSH/IBMX in DMEM/F12+0.1% BSA) by Multidrop to 2 al of test compound stamped in 384 well plates (compounds are diluted 1:50). The final FSH concentration was 0.265 pM, and the final IBMX concentration was 200 μM. The compound plate map was as follows: Column 1: 2 μl of DMSO; Column 2: 2 μl of DMSO; Columns 3-12 and 13-24: 2 μl of test compound, diluted 1:4 in 100% DMSO, or 2 μl of FSH, diluted 1:4 in DMEM/F12+0.1% BSA. The starting concentration for FSH was 50 nM (final concentration was 0.5 nM). Furthermore, Column 23 contained 2 μl of EC100 FSH reference (100×) (diluted in DMEM/F12+0.1% BSA) at a final concentration of 0.5 nM, and Column 24 contained 2 μl of 1 mM AS707664/2 reference compound 2. 5 μl of compound+EC20 FSH mixture were transferred to cell plates (1:2 dilution into 5 μl of cell media) The plates were incubated at 37° C. for 1 h. 10 μl of mixed HTRF (CisBio #62AM4PEC) reagents were added per well and incubated at room temperature for 1 h. The plates were read on Envision using the cAMP HTRF—low volume 384 well protocol. The readout was the calculated fluorescence ratio (665 nm/620 nm). Values given in percent (%) indicate the percental effect (response) at a certain concentration of agonist relative to the maximum response of the FSH standard.

| pEC50 [1] | pEC50 (FSHR) | SMILES |
| --- | --- | --- |
| 7.00 to 8.00 | > 8.00 | COc1cc(OC)cc(-n2nc(C(=O)N3CC[S+]([O-])CC3(C)C)c3c2-c2cc(-c4cccnc4F)c(OC)cc2OC3)c1 (centres unmarked) [Compound 40, (1-(3,5-dimethoxyphenyl)-8-(2-fluoropyridin-3-yl)-7-methoxy-1,4-dihydrochromeno[4,3-c]pyrazol-3-yl)(S-oxo-3,3-dimethylthiomorpholino)methanone] |
| < 6.30 | 7.00 to 8.00 | COc1cc2c(cc1-c1cnn(CCO)c1)-c1c(c(C(=O)N(C)C(C)(C)C)nn1-c1ccsc1)CO2 [Compound 76, N-tert-butyl-8-(1-(2-hydroxyethyl)-1H-pyrazol-4-yl)-7-methoxy-N-methyl-1-(thiophen-3-yl)-1,4-dihydrochromeno[4,3-c]pyrazole-3-carboxamide] |
|  | 6.30 to 7.00 | COc1cc2c(cc1-c1cnn(CC(O)CO)c1)-c1c(c(C(=O)N(C)C(C)(C)C)nn1-c1cc(Cl)cc(Cl)c1)CO2 (single isomer, unassigned) [Compound 192, N-tert-butyl-1-(3,5-dichlorophenyl)-8-(1-(2,3-dihydroxypropyl)-1H-pyrazol-4-yl)-7-methoxy-N-methyl-1,4-dihydrochromeno[4,3-c]pyrazole-3-carboxamide] |
|  | 7.00 to 8.00 | COc1cc2c(cc1-c1ccc(F)c(C(=O)O)c1)-c1c(c(C(=O)N(C)C(C)(C)C)nn1-c1cc(Cl)cc(Cl)c1)CO2 [Compound 180] |
|  | > 8.00 | COc1cc2c(cc1-c1cnoc1C)-c1c(c(C(=O)N(C)C(C)(C)C)nn1-c1cc(Cl)cc(Cl)c1)CO2 [Compound 15, N-tert-butyl-1-(3,5-dichlorophenyl)-7-methoxy-N-methyl-8-(5-methylisoxazol-4-yl)-1,4-dihydrochromeno[4,3-c]pyrazole-3-carboxamide] |
|  | 7.00 to 8.00 | COc1cc2c(cc1-c1ccn(C)n1)-c1c(c(C(=O)N3CCCC3(CO)CC(C)C)nn1-c1ccsc1)CO2 (centres unmarked) [Compound 126, (2-(hydroxymethyl)-2-isobutylpyrrolidin-1-yl)(7-methoxy-8-(1-methyl-1H-pyrazol-3-yl)-1-(thiophen-3-yl)-1,4-dihydrochromeno[4,3-c]pyrazole-3-yl)methanone] |
|  | 7.00 to 8.00 | CCC1(COC)CCCN1C(=O)c1nn(-c2ccsc2)c2c1COc1cc(OC)c(-c3ccn(C)n3)cc1-2 (centres unmarked) [Compound 128, (2-ethyl-2-(methoxymethyl)pyrrolidin-1-yl)(7-methoxy-8-(1-methyl-1H-pyrazol-3-yl)-1-(thiophen-3-yl)-1,4-dihydrochromeno[4,3-c]pyrazol-3-yl)methanone] |
|  | > 8.00 | COc1cc(Cl)cc(-n2nc(C(=O)N(C)C(C)(C)C)c3c2-c2cc(-c4cncc(C#N)c4)c(OC)cc2OC3)c1 [Compound 35, N-tert-butyl-1-(3-chloro-5-methoxyphenyl)-8-(5-cyanopyridin-3-yl)-7-methoxy-N-methyl-1,4-dihydrochromeno[4,3-c]pyrazole-3-carboxamide] |
|  | > 8.00 | COc1cc2c(cc1CC(C)C)-c1c(c(C(=O)N(C)C(C)(C)C#N)nn1-c1ccsc1)CO2 [Compound 133, N-(2-cyanopropan-2-yl)-8-isobutyl-7-methoxy-N-methyl-1-(thiophen-3-yl)-1,4-dihydrochromeno[4,3-c]pyrazole-3-carboxamide] |
|  | 7.00 to 8.00 | COc1cc(OC)cc(-n2nc(C(=O)N(CCO)C(C)(C)C)c3c2-c2cc(-c4ccn(C)n4)c(OC)cc2OC3)c1 [Compound 124, N-tert-butyl-1-(3,5-dimethoxyphenyl)-N-(2-hydroxyethyl)-7-methoxy-8-(1-methyl-1H-pyrazol-3-yl)-1,4-dihydrochromeno[4,3-c]pyrazole-3-carboxamide] |
|  | > 8.00 | COc1cc2c(cc1-c1ccccn1)-c1c(c(C(=O)N3CCOCC3(C)C)nn1-c1cc(Cl)cc(Cl)c1)CO2 [Compound 11, (1-(3,5-dichlorophenyl)-7-methoxy-8-(pyridin-2-yl)-1,4-dihydrochromeno[4,3-c]pyrazol-3-yl)(3,3-dimethylmorpholino)methanone] |
|  | 7.00 to 8.00 | COc1cc2c(cc1-c1ccn(C)n1)-c1c(c(C(=O)N3CCC(S(C)(=O)=O)CC3(C)C)nn1-c1ccsc1)CO2 (centres unmarked) [Compound 129, (2,2-dimethyl-4-(methylsulfonyl)piperidin-1-yl)(7-methoxy-8-(1-methyl-1H-pyrazol-3-yl)-1-(thiophen-3-yl)-1,4-dihydrochromeno[4,3-c]pyrazol-3-yl)methanone] |
|  | > 8.00 | COc1cc(OC)cc(-n2nc(C(=O)N3CC[S+]([O-])CC3(C)C)c3c2-c2cc(-c4cncc(C)c4)c(OC)cc2OC3)c1 (centres unmarked) [Compound 45, (1-(3,5-dimethoxyphenyl)-7-methoxy-8-(5-methylpyridin-3-yl)-1,4-dihydrochromeno[4,3-c]pyrazol-3-yl)(S-oxo-3,3-dimethylthiomorpholino)methanone] |
|  | 7.00 to 8.00 | COc1cc2c(cc1-c1ccn(C)n1)-c1c(c(C(=O)N3CCS(=O)(=O)CC3(C)C)nn1-c1cc(Cl)cc(Cl)c1)CO2 [Compound 13, 4-{[1-(3,5-dichlorophenyl)-7-methoxy-8-(1-methyl-1H-pyrazol-3-yl)-1H,4H-chromeno[4,3-c]pyrazol-3-yl]carbonyl}-3,3-dimethyl-1l{6},4-thiomorpholine-1,1-dione] |
|  | 7.00 to 8.00 | COc1cc2c(cc1C#CC(N)=O)-c1c(c(C(=O)N(C)C(C)(C)C)nn1-c1ccsc1)CO2 [Compound 186, 8-(3-amino-3-oxoprop-1-ynyl)-N-tert-butyl-7-methoxy-N-methyl-1-(thiophen-3-yl)-1,4-dihydrochromeno[4,3-c]pyrazole-3-carboxamide] |
|  | 7.00 to 8.00 | COc1cc2c(cc1[C@H]1C[C@@H]1C(=O)O)-c1c(c(C(=O)N(C)C(C)(C)C)nn1-c1cc(F)cc(F)c1)CO2 (racemic) [Compound 205] |
|  | < 6.30 | COc1cc(OC)cc(-n2nc(C(=O)N(C)C(C)(C)C)c3c2-c2cc(-c4nn(C)cc4C(N)=O)c(OC)cc2OC3)c1 [Compound 144, N-tert-butyl-8-(4-carbamoyl-1-methyl-1H-pyrazol-3-yl)-1-(3,5-dimethoxyphenyl)-7-methoxy-N-methyl-1,4-dihydrochromeno[4,3-c]pyrazole-3-carboxamide] |
|  | 7.00 to 8.00 | COc1cc(OC)cc(-n2nc(C(=O)N3CCOCC3(C)C)c3c2-c2cc(-c4ccccn4)c(OC)cc2OC3)c1 [Compound 47, (1-(3,5-dimethoxyphenyl)-7-methoxy-8-(pyridin-2-yl)-1,4-dihydrochromeno[4,3-c]pyrazol-3-yl)(3,3-dimethylmorpholino)methanone] |
